Experimental data from ChEMBL document CHEMBL1201862, “PubChem BioAssay data set” (2004).
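Five concentrations, 48 hours, 96-well plates. GI50 = concentration required for 50% inhibition of growth.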 Active and inactive are the calls of the source. Rule as the data show it: active = GI50 up to about 1.1 µM and inactive = higher.

Assays:
Experiment in all cases: NCI anticancer screen, dose series, 48 h
K562 = tested on: K562
786-0 = tested on: 786-0
HT-29 = tested on: HT-29
SF-539 = tested on: SF-539
SK-MEL-2 = tested on: SK-MEL-2
SF-268 = tested on: SF-268
A498 = tested on: A498
NCI/ADR-RES = tested on: NCI/ADR-RES
SF-295 = tested on: SF-295
NCI-H522 = tested on: NCI-H522
MDA-MB-435 = tested on: MDA-MB-435
T47D = tested on: T47D
SNB-75 = tested on: SNB-75
KM12 = tested on: KM12
DU-145 = tested on: DU-145
MDA-N = tested on: MDA-N
MDA-MB-231 = tested on: MDA-MB-231
HCC 2998 = tested on: HCC 2998
OVCAR-8 = tested on: OVCAR-8
ACHN = tested on: ACHN

Measured: GI50

Cn1c(N)c(/C=C/C(=O)Oc2ccccc2)c(=O)n(C)c1=O
inactive: K562 > 100 µM | 786-0 78.9 µM | HT-29 > 100 µM | SF-539 50.8 µM | SK-MEL-2 > 100 µM | SF-268 31.7 µM | A498 > 100 µM | NCI/ADR-RES 75.3 µM | SF-295 33.7 µM | NCI-H522 > 100 µM | MDA-MB-435 > 100 µM | T47D 85.3 µM | SNB-75 24.2 µM | KM12 > 100 µM | DU-145 99.8 µM | MDA-N > 100 µM | MDA-MB-231 > 100 µM | HCC 2998 > 100 µM | OVCAR-8 30.6 µM | ACHN 50.7 µM

CCOC(=O)c1ccc2nc(-c3ccc(S(=O)(=O)F)cc3)cc(O)c2c1
inactive: K562 42.8 µM | 786-0 36.4 µM | HT-29 62.1 µM | SF-539 56.5 µM | SK-MEL-2 27.5 µM | SF-268 60.8 µM | A498 14.8 µM | NCI/ADR-RES > 100 µM | SF-295 39.8 µM | NCI-H522 15.8 µM | MDA-MB-435 40.9 µM | T47D 25.1 µM | SNB-75 25.2 µM | KM12 29.8 µM | DU-145 48.9 µM | MDA-N 33.5 µM | MDA-MB-231 36.3 µM | HCC 2998 14.5 µM | OVCAR-8 61.2 µM | ACHN 24.2 µM

COC(=O)c1cc2/c(=N/O)c3ccccc3sc2o1
inactive: K562 > 100 µM | 786-0 > 100 µM | HT-29 > 100 µM | SF-539 > 100 µM | SK-MEL-2 > 100 µM | SF-268 > 100 µM | A498 > 100 µM | NCI/ADR-RES > 100 µM | SF-295 > 100 µM | NCI-H522 > 100 µM | MDA-MB-435 > 100 µM | T47D > 100 µM | SNB-75 > 100 µM | KM12 > 100 µM | DU-145 > 100 µM | MDA-N > 100 µM | MDA-MB-231 > 100 µM | HCC 2998 > 100 µM | OVCAR-8 > 100 µM | ACHN > 100 µM

COc1ccc(NC(=O)CC(=O)N2N=C(C)C(/N=N/c3ccc(C(=O)O)cc3)C2=O)cc1 (stereo not given)
inactive: K562 > 100 µM | 786-0 > 100 µM | HT-29 > 100 µM | SF-539 > 100 µM | SK-MEL-2 > 100 µM | SF-268 > 100 µM | A498 > 100 µM | NCI/ADR-RES > 100 µM | SF-295 > 100 µM | NCI-H522 > 100 µM | MDA-MB-435 > 100 µM | T47D > 100 µM | SNB-75 77.3 µM | KM12 71.8 µM | DU-145 > 100 µM | MDA-N > 100 µM | MDA-MB-231 > 100 µM | HCC 2998 > 100 µM | OVCAR-8 > 100 µM | ACHN > 100 µM
